Data taken from the NIST ThermoML archive (doi:10.1016/j.jct.2016.02.009).

Test: molar heat capacity at constant pressure
Details: 101.33 kPa, Small (less than 1 g) adiabatic calorimetry

CCCCCCCCCCn1cc[n+](C)c1.O=S(=O)([N-]S(=O)(=O)C(F)(F)F)C(F)(F)F
molar heat capacity at constant pressure [J/K/mol]
Details	Crystal 2	Metastable crystal
4.82 K	3.08	–
4.98 K	–	3.38
5 K	3.41	3.41
5.15 K	3.69	–
5.32 K	–	4.05
5.49 K	4.38	–
5.67 K	–	4.81
5.85 K	5.15	–
6.03 K	–	5.65
6.28 K	6.16	–
6.46 K	–	6.76
6.8 K	7.44	–
6.97 K	–	8.15
7.32 K	8.83	–
7.49 K	–	9.71
7.85 K	10.34	–
8.02 K	–	11.34
8.39 K	11.95	–
8.55 K	–	13.1
8.92 K	13.66	–
9.09 K	–	14.97
9.47 K	15.45	–
9.62 K	–	16.9
10 K	17.29	18.31
10.01 K	17.32	–
10.16 K	–	18.93
10.63 K	19.54	–
10.78 K	–	21.32
11.31 K	22.05	–
11.46 K	–	24.01
12 K	24.68	–
12.15 K	–	26.84
12.7 K	27.41	–
12.85 K	–	29.77
13.4 K	30.22	–
13.56 K	–	32.75
14.1 K	33.14	–
14.27 K	–	35.9
14.81 K	36.15	–
14.99 K	–	39.03
15 K	36.94	39.12
15.63 K	39.64	–
15.81 K	–	42.67
16.56 K	43.69	–
16.75 K	–	46.88
17.51 K	47.81	–
17.7 K	–	51.06
18.46 K	51.81	–
18.65 K	–	55.14
19.4 K	55.79	–
19.6 K	–	59.21
20 K	58.37	61
20.36 K	59.87	–
20.85 K	–	64.6
21.61 K	65.16	–
22.41 K	–	71.3
23.17 K	71.8	–
23.98 K	–	78
24.75 K	78.35	–
25 K	79.32	82.14
25.56 K	–	84.49
26.31 K	84.64	–
27.07 K	–	90.53
27.89 K	90.84	–
28.66 K	–	96.83
29.55 K	97.23	–
30 K	98.9	102
30.24 K	–	102.9
31.4 K	104	–
31.98 K	–	109.5
33.31 K	110.8	–
33.9 K	–	116.3
35 K	116.6	120.1
35.22 K	117.3	–
35.82 K	–	123
37.13 K	123.7	–
37.74 K	–	129.4
39.05 K	129.9	–
39.66 K	–	135.6
40 K	132.9	136.7
41.06 K	136.2	–
41.68 K	–	142
43.16 K	142.8	–
43.79 K	–	148.7
45 K	–	152.5
45.27 K	149.2	–
45.9 K	–	155.3
47.38 K	155.7	–
48.02 K	–	161.8
49.5 K	161.9	–
50 K	163.2	167.6
50.15 K	–	168
51.63 K	168	–
52.27 K	–	174.1
53.75 K	173.9	–
54.4 K	–	180
55.87 K	179.6	–
56.52 K	–	185.7
57.99 K	185.1	–
58.65 K	–	191.3
60 K	190.4	194.8
60.11 K	190.6	–
60.78 K	–	196.8
62.24 K	196.1	–
62.91 K	–	202.2
64.38 K	201.3	–
65.05 K	–	207.5
66.52 K	206.5	–
67.19 K	–	212.7
68.65 K	211.6	–
69.32 K	–	217.8
70 K	214.9	219.4
70.79 K	216.6	–
71.56 K	–	223.1
73.03 K	221.9	–
73.9 K	–	228.4
75.37 K	227.2	–
76.24 K	–	233.8
77.73 K	232.5	–
78.59 K	–	239
80 K	237.4	242.1
80.09 K	237.6	–
80.53 K	238.8	–
80.94 K	–	244.2
81.02 K	–	244.3
82.24 K	242.3	–
82.44 K	242.6	–
82.84 K	–	248.2
83.3 K	–	249.2
83.96 K	245.9	–
84.55 K	–	251.8
85.68 K	249.4	–
86.26 K	–	255.5
87.42 K	253.1	–
87.99 K	–	259.2
89.16 K	256.6	–
89.72 K	–	262.8
90 K	258.5	263.4
90.91 K	260.3	–
91.45 K	–	266.4
92.66 K	263.9	–
93.2 K	–	270
94.42 K	267.5	–
94.95 K	–	273.7
96.19 K	271.1	–
96.7 K	–	277.2
97.97 K	274.7	–
98.47 K	–	280.8
99.75 K	278.1	–
100 K	278.7	283.9
100.23 K	–	284.3
101.59 K	281.8	–
102.07 K	–	288.2
103.5 K	285.5	–
103.96 K	–	292
105.42 K	289.1	–
105.87 K	–	295.9
107.35 K	292.7	–
107.77 K	–	299.7
109.27 K	296.4	–
109.69 K	–	303.6
110 K	297.7	304.1
111.21 K	299.9	–
111.6 K	–	307.4
113.14 K	303.5	–
113.52 K	–	311.1
115.09 K	307	–
115.45 K	–	314.9
117.03 K	310.5	–
117.37 K	–	318.6
118.98 K	314	–
119.3 K	–	322.3
120 K	315.8	323.7
120.92 K	317.4	–
121.23 K	–	326.1
122.88 K	320.8	–
123.16 K	–	329.9
124.83 K	324.3	–
125.09 K	–	333.6
126.79 K	327.7	–
127.03 K	–	337.4
128.75 K	331.1	–
128.97 K	–	341.2
130 K	333.3	343.2
130.71 K	334.5	–
130.9 K	–	345.1
132.67 K	337.9	–
132.84 K	–	348.9
134.64 K	341.3	–
134.78 K	–	352.7
136.6 K	344.8	–
136.72 K	–	356.6
138.57 K	348	–
138.66 K	–	360.6
140 K	350.5	363.3
140.54 K	351.4	–
140.6 K	–	364.4
142.51 K	354.8	–
